Key:
[1] = system: C5b,6, C5, C6, C7, thrombin; experiment: differential scanning fluorimetry (DSF), all proteins tested; assay type: binding; conditions: 1 mM
Description: For DSF, 25 μL reaction mixes consisting of 0.4 mg/mL protein (0.14 mg/mL for C5b,6), varying concentrations of polyphosphate diluted in HBS (20 mM HEPES, 150 mM NaCl, pH 7.4), and 5× SYPRO Orange were loaded into MicroAmp Fast Optical 96-well Reaction Plates (Applied Biosystems). Samples were heat denatured in an Applied Biosystems StepOnePlus Real-Time PCR System using a ramp configuration starting at 25° C. and increasing at 1 C.° min^−1 to 95° C. Fluorescence (in relative fluorescence units, RFU) was measured every 30 seconds^38. Data for each curve were normalized to the maximum and the minimum of the curve.
In another approach, differential scanning fluorimetry (DSF) was used to determine the thermal stability of the complement proteins in the presence and absence of polyphosphate. This technique involves heat-denaturing proteins and exposing internal hydrophobic regions to the aqueous environment, which are detected by the fluorescent dye SYPRO Orange^38. Interactions between a protein and a binding partner often change the thermal stability of the protein, observed as a shift in the melting (denaturation) curve. C5b,6, C5, C6, and C7 were individually incubated with a range of concentrations of polyphosphate>1000 and relative fluorescence (RFU) was measured as the proteins were thermally denatured. An increase in RFU indicates protein denaturation. […]

[2] = biological target: T1, C1-esterase inhibitor (C1-inh) (Homo sapiens, UniProt P05155); experiment: C1s-mediated cleavage of C2 in the presence of C1-inh (SDS-PAGE); assay type: biochemical; conditions: 10-500 μM, 6 nM C1s, 5 nM C1-inh
T1 sequence (P05155 23-500): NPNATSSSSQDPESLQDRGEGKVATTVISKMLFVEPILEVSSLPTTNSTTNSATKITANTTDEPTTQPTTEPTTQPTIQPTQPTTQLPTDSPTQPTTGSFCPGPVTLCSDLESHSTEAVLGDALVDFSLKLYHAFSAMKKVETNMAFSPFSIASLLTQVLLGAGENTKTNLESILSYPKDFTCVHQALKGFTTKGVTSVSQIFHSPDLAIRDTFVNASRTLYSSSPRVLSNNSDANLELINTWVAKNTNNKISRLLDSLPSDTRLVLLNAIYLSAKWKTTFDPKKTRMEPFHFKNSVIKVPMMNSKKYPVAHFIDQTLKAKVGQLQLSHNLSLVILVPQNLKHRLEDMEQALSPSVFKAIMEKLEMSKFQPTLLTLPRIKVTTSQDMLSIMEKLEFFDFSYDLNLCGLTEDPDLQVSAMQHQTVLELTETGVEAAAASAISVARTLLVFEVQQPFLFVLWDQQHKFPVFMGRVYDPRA
Description: We tested whether polyP affects the inhibitory properties of C1-inh on C1s-mediated cleavage and activation of complement factor C4 and C2. SDS-PAGE followed by coomassie staining of gels was used to monitor cleavage of C4 by C1s in the presence/absence of C1-inh and/or polyP in a purified system.
Briefly, 6 nM C1s with 10-500 μM of polyP1000 were incubated in 20 mM Hepes, 0.15 M NaCl, pH 7.5, 0.01% Tween buffer for 90 minutes at 37° C. 5 nM C1-inh was added and incubated for 30 minutes. C2 was added and incubated for 5 minutes at 37° C. The reactions were quenched with 5× loading buffer and β-ME.

[3] = system: terminal pathway (TP) of complement; experiment: serum-based terminal pathway (TP) hemolytic assay (2% NHS, C5b,6, chicken erythrocytes); assay type: cell-based, human
From the text: Erythrocyte lysis assays were used to measure complement-mediated hemolytic activity. Erythrocyte (RBC) lysis assays as previously described^18,37 were used to measure complement activity. For alternative pathway assays and for total hemolytic activity assays, unsensitized rabbit erythrocytes were used. Chicken erythrocytes were used for the terminal pathway assays.
Erythrocytes were washed three times in GVB with the reaction buffers as indicated, and counted using the Advia 120 Hematology System from Siemens (Siemens, Erlangen, Germany). Reactions in 300 μL were allowed to proceed for 30 min at 37° C., after which unlysed cells were pelleted by centrifugation at 600×g. Erythrocyte lysis, reflected by the released hemoglobin in the supernatant, was quantified by measuring the absorbance at 405 nm using the Mithras LB 940 microplate reader from Berthold Technologies (Bad Wildbad, Germany). Percent lysis was determined relative to the control of 100% lysis with H2O. For total hemolytic and terminal pathway (TP) assays, the concentrations of NHS and C5b,6 to initiate complement activation were established from pilot studies to obtain ˜70-80% erythrocyte lysis at 30 min.
For serum-based terminal pathway (TP) hemolytic assays, components were diluted in GVB containing 10 mM EDTA (GVB-E), the latter added to prevent upstream complement activation and generation of endogenous C5b,6. 2% NHS was used as the source of C7, C8, and C9, and hemolysis of chicken erythrocytes (cRBC) (3.3×10^8 cells/mL) was initiated by addition of exogenous purified C5b,6, the concentration of which was determined from pilot studies to yield ˜70-80% lysis at 30 min. No C5b,6 activity was detected in the NHS prior to initiating the reaction. For some experiments, instead of NHS, purified terminal pathway complement components were used in the TP assays. In these assays, in a final volume of 300 uL GVB, lysis was achieved by the sequential addition of the following components: cRBC (3.3×10^8 cells/mL), C5b,6 (20 μM), C7 (15 nM), C8 (10 nM), and C9 (25 nM). The unlysed cell pellet was removed by centrifugation and lysis was measured immediately after the 30-minute reaction. A standard curve for the terminal pathway assay using serum as the source of complement (FIG. 2) was generated using a fixed serum concentration at 2%, and increasing concentrations of purified C5b,6 dose-dependently lysed chicken erythrocytes after 30 min at 37° C. […] of purified C5b,6 was therefore used to fix baseline lysis at ˜80% to allow assessment of the inhibitory effects of polyphosphate in serum.
TP activity in NHS(2%), measured by lysis of cRBC, was initiated by adding a limiting amount of exogenous purified C5b,6 (250 pM) to achieve 70-80% lysis after 30 min. A molar excess of EDTA was used to prevent upstream activation of complement and generation of endogenous C5b,6. In the absence of C5b,6, there was no detectable complement-mediated cRBC lysis. P1 at concentrations ranging from 0.1 to 1000 μM, had no effect on complement-mediated hemolysis in NHS via the TP (FIG. 5A). By contrast, polyphosphate>1000 inhibited the TP in serum in a concentration-dependent manner, with an IC50 of ˜10 μM polyphosphate>1000 (dotted lines) (calculated based on monomeric phosphate).

SMILES: O=P(O)(O)O [P1, Orthophosphate]
- effect on thermal stability (DSF) [1]: had no effect on the thermal stability
- effect on activity of C1-inh in interfering with C1s-mediated cleavage of C2 [2]: had no effect
- effect on TP hemolytic activity at equivalent concentration ([3]; 100 μM (based on the monomeric form)): had no effect
- effect on complement-mediated hemolysis in NHS via the TP ([3]; 0.1 to 1000 μM, 2% NHS, 250 pM C5b,6, cRBC): had no effect
- effect of co-incubated P1 on suppressive properties of polyphosphate>1000 ([3]; up to 2 mM P1 with 200 μM polyphosphate>1000): had no effect on the suppressive properties

From patent publication US9408871B2, “Methods for inhibiting complement activation and uses thereof” (THE UNIVERSITY OF BRITISH COLUMBIA, priority 2013, dated 2016)
